Reference: BindingDB's records for patent US11555039 (Translational Drug Development, 2023)

Molecular target: Rho-associated protein kinase 2 (Homo sapiens, UniProt O75116)
Experiment: Kinase Inhibition

Sequence of Rho-associated protein kinase 2 (O75116 whole entry): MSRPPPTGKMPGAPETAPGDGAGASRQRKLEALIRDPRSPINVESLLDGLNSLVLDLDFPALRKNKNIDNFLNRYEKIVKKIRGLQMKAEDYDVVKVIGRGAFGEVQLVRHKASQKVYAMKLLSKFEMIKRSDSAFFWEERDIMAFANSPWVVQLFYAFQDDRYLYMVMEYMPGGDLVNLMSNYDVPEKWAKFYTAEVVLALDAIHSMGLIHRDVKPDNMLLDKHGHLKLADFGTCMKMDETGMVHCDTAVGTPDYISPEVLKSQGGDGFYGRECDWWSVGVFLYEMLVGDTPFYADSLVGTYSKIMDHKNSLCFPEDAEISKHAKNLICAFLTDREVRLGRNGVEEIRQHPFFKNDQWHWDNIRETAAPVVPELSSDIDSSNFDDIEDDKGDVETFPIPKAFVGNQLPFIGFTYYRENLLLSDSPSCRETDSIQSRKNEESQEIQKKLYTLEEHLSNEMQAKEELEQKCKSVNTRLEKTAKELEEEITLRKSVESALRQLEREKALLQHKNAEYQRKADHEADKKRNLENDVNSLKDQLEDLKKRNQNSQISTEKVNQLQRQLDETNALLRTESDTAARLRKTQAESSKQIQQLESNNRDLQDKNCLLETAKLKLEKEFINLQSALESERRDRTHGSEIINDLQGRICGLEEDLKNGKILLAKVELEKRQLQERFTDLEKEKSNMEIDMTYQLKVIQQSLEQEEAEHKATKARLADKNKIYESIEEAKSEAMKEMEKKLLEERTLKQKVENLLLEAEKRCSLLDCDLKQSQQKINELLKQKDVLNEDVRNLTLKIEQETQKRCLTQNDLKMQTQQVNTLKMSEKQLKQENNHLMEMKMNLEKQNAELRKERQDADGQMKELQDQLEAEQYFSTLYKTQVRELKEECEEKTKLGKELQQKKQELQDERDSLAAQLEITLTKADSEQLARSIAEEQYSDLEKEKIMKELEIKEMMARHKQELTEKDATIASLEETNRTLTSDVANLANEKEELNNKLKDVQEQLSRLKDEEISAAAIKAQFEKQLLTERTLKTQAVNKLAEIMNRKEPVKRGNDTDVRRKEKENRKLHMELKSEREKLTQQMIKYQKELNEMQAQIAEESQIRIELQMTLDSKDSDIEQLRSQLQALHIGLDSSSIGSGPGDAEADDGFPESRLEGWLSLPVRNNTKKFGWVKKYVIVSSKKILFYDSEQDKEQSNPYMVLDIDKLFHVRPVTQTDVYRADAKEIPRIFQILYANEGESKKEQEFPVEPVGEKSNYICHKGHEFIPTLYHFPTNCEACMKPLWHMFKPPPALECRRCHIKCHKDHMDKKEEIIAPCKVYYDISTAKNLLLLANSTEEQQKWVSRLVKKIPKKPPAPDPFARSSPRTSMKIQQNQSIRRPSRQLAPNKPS

IC50: 0.51 nM
SMILES: CCOc1ccc(NC(=O)c2cccc([C@@H](CO)NC(=O)c3ccc(-c4ccncc4)cc3)c2)cn1 [US11555039, Compound ID 93]
